The source made the active and inactive calls. The calls are words filed in the database; no cut-off is given here.
Experiments:
[1] = biological target: T1, Vitamin D3 receptor (Homo sapiens) (UniProt P11473); experiment: Activation of VDR (unknown origin) expressed in human HeLa cells measured after 24 hrs by luciferase reporter assay; type: cell-based
T1 sequence (whole entry): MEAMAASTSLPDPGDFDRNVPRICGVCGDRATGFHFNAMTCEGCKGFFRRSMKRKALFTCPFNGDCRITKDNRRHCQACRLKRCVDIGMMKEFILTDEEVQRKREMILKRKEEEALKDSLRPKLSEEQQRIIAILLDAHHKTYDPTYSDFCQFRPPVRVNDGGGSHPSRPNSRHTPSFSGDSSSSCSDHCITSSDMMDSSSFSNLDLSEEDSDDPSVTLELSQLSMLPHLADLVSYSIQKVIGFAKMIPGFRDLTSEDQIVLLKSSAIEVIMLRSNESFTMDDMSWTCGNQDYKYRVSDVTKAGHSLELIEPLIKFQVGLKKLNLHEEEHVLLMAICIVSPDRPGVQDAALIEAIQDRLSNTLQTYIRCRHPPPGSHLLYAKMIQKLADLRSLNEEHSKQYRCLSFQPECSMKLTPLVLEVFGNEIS

[2] = biological target: Genome polyprotein (dengue virus type 2) (UniProt P29990); experiment: Inhibition of Dengue virus 2 NS2B-NS3 protease
[3] = biological target: T1, Vitamin D3 receptor (Homo sapiens); experiment: Modulation of VDR (unknown origin) expressed in human HeLa cells assessed as increase in calcitriol-induced response measured after 24 hrs by luciferase reporter assay; type: cell-based
[4] = test system: HeLa; experiment: Cytotoxicity against human HeLa cells measured after 24 hrs by MTT assay; type: cell-based
[5] = test system: HeLa; experiment: Induction of autophagy in human HeLa cells transformed with VDR shRNA assessed as effect on p62 expression at 10 uM measured after 4 hrs by Western blot analysis; type: functional, cell-based
[6] = test system: HeLa; experiment: Induction of autophagy in human HeLa cells transformed with VDR shRNA assessed as up regulation of LC3-1 expression at 10 uM measured after 4 hrs in presence of calcitriol by Western blot analysis; type: functional, cell-based
[7] = test system: HeLa; experiment: Up regulation of VDR expression in human HeLa cells at 10 uM measured after 4 hrs in presence of VDR shRNA by Western blot analysis; type: functional, cell-based
[8] = biological target: T1, Vitamin D3 receptor (Homo sapiens); experiment: Modulation of VDR in human HeLa cells assessed as down regulation of p65 expression at 10 uM measured after 24 hrs in the presence of calcitriol by Western blot analysis; type: cell-based
[9] = test system: HeLa; experiment: Induction of autophagy in human HeLa cells assessed as calcitriol-induced up regulation of LC3-1 expression at 10 uM measured after 4 hrs by Western blot analysis; type: functional, cell-based
[10] = biological target: T1, Vitamin D3 receptor (Homo sapiens); experiment: Modulation of VDR in human HeLa cells assessed as increase in calcitriol-induced upregulation of LC3-2 expression at 10 uM measured after 4 hrs by Western blot analysis; type: cell-based
[11] = biological target: T1, Vitamin D3 receptor (Homo sapiens); experiment: Modulation of VDR in human HeLa cells assessed as increase in calcitriol-induced upregulation of p62 expression at 10 uM measured after 4 hrs by Western blot analysis; type: cell-based
[12] = test system: HeLa; experiment: Induction of autophagy in human HeLa cells transformed with VDR shRNA assessed as effect on p62 expression at 10 uM measured after 4 hrs in presence of calcitriol by Western blot analysis; type: functional, cell-based
[13] = biological target: T1, Vitamin D3 receptor (Homo sapiens); experiment: Activation of VDR in human HeLa cells assessed as up regulation of phosphorylated p65 expression at 10 uM measured after 24 hrs in the presence of calcitriol by Western blot analysis; type: cell-based
[14] = test system: HeLa; experiment: Induction of autophagy in human HeLa cells transformed with VDR shRNA assessed as up regulation of LC3-2 expression at 10 uM measured after 4 hrs in presence of calcitriol by western blot analysis; type: functional, cell-based
[15] = biological target: T1, Vitamin D3 receptor (Homo sapiens); experiment: Modulation of VDR in human HeLa cells assessed as increase in calcitriol-induced LC3-2 to LC3-1 ratio at 10 uM measured after 4 hrs by Western blot analysis; type: cell-based
[16] = test system: HeLa; experiment: Induction of autophagy in human HeLa cells transformed with shRNA against VDR assessed as downregulation of LC3-2 expression at 10 uM measured after 4 hrs; type: functional, cell-based
[17] = biological target: T1, Vitamin D3 receptor (Homo sapiens); experiment: Modulation of VDR (unknown origin) expressed in human HeLa cells assessed as increase in calcitriol-induced response at 10 uM measured after 24 hrs by luciferase reporter assay relative to control; type: cell-based
[18] = test system: HeLa; experiment: Induction of autophagy in human HeLa cells transformed with VDR shRNA assessed as increase in LC3-2 to LC3-1 ratio at 10 uM measured after 4 hrs in presence of calcitriol by Western blot analysis; type: functional, cell-based

| Activity [1] | Inhibition (active/not active) [2] | Activity [3] | Activity [8] | Activity [10] | Activity [11] | Activity [13] | Activity [15] | fold change (FC) [17] | SMILES | CC10 [4] [µM] | Activity [5] | Activity [6] | Activity [7] | Activity [9] | Activity [12] | Activity [14] | Activity [16] | Activity [18] |
| --- | --- | --- | --- | --- | --- | --- | --- | --- | --- | --- | --- | --- | --- | --- | --- | --- | --- | --- |
| inactive | Active | inactive |  |  |  |  |  |  | O=C1[C@@H]2CCCN2[C@@H](Cc2ccc([N+](=O)[O-])cc2)N1c1ccc([N+](=O)[O-])cc1 | > 10 |  |  |  |  |  |  |  |  |
| inactive | Active | inactive |  |  |  |  |  |  | O=C1[C@@H]2CCCN2[C@@H](c2cccc([N+](=O)[O-])c2)N1c1ccc([N+](=O)[O-])cc1 | > 10 |  |  |  |  |  |  |  |  |
| inactive | inactive | Dose-dependent effect | Active | Active | Active | Active |  |  | O=C1[C@@H]2CCCN2[C@@H](c2ccco2)N1c1ccc([N+](=O)[O-])cc1 | > 10 | inactive | Active | inactive | Active | inactive | Active |  |  |
| inactive | Active | inactive |  |  |  |  |  |  | O=C1[C@@H]2CCCN2[C@@H](Cc2ccccc2)N1c1ccc([N+](=O)[O-])cc1 | > 10 |  |  |  |  |  |  |  |  |
| inactive | Active | inactive |  |  |  |  |  |  | O=C1[C@@H]2CCCN2[C@@H](c2ccc(C(F)(F)F)cc2)N1c1ccc([N+](=O)[O-])cc1 | > 10 |  |  |  |  |  |  |  |  |
| inactive | inactive | Dose-dependent effect | Active | Active | Active | Active |  |  | COc1cc([C@H]2N(c3ccc([N+](=O)[O-])cc3)C(=O)[C@@H]3CCCN32)ccc1O | > 10 | inactive | Active | inactive | Active | inactive | Active |  |  |
| inactive | Active | inactive |  |  |  |  |  |  | CC(C)c1ccc([C@H]2N(c3ccc([N+](=O)[O-])cc3)C(=O)[C@@H]3CCCN32)cc1 | > 10 |  |  |  |  |  |  |  |  |
| inactive | inactive | inactive |  |  |  |  |  |  | O=C1[C@@H]2CCCN2[C@@H](c2cccs2)N1c1ccc([N+](=O)[O-])cc1 | > 10 |  |  |  |  |  |  |  |  |
| inactive | inactive | inactive |  |  |  |  |  |  | O=C1[C@@H]2CCCN2[C@@H](c2ccc([C@H]3N(c4ccc([N+](=O)[O-])cc4)C(=O)[C@@H]4CCCN43)cc2)N1c1ccc([N+](=O)[O-])cc1 | > 10 |  |  |  |  |  |  |  |  |
| inactive | inactive | inactive |  |  |  |  |  |  | O=C1[C@@H]2CCCN2[C@@H](c2ccccc2[N+](=O)[O-])N1c1ccc([N+](=O)[O-])cc1 | > 10 |  |  |  |  |  |  |  |  |
| inactive | inactive | Dose-dependent effect | Active | Active | Active | Active | Active |  | CSCC[C@H](NC(=O)OC(C)(C)C)C(=O)Nc1ccc([C@H]2N(c3ccc([N+](=O)[O-])cc3)C(=O)[C@@H]3CCCN32)cc1 | > 10 | inactive | Active | Active | Active | inactive | Active |  |  |
| inactive | Active | Dose-dependent effect |  |  |  |  |  |  | O=C1[C@@H]2CCCN2[C@@H](c2ccc([N+](=O)[O-])cc2)N1c1ccc([N+](=O)[O-])cc1 | > 10 |  |  |  |  |  |  |  |  |
| inactive | inactive | Dose-dependent effect |  |  |  |  |  |  | O=C1[C@@H]2CCCN2[C@@H](c2ccc(O)cc2)N1c1ccc([N+](=O)[O-])cc1 | > 10 |  |  |  |  |  |  |  |  |
| inactive | inactive | inactive |  |  |  |  |  |  | O=C1[C@@H]2CCCN2[C@@H](CCC[C@H]2N(c3ccc([N+](=O)[O-])cc3)C(=O)[C@@H]3CCCN32)N1c1ccc([N+](=O)[O-])cc1 | > 10 |  |  |  |  |  |  |  |  |
| inactive | inactive | Dose-dependent effect | Active | Active | Active | Active | Active | 2.5 to 3 | COc1ccc(C[C@H]2N(c3ccc([N+](=O)[O-])cc3)C(=O)[C@@H]3CCCN32)cc1OC | > 10 | inactive | Active | Active | inactive | inactive |  | Active |  |
| inactive | inactive | Dose-dependent effect | Active | Active | Active | Active | Active | 2.5 to 3 | CSCC[C@H](N)C(=O)Oc1ccc([C@H]2N(c3ccc([N+](=O)[O-])cc3)C(=O)[C@@H]3CCCN32)cc1.Cl | > 10 | inactive | Active | Active | Active | inactive | Active |  | Active |
| inactive | Active | inactive |  |  |  |  |  |  | O=C1[C@@H]2CCCN2[C@@H](c2ccc(Cl)cc2)N1c1ccc([N+](=O)[O-])cc1 | > 10 |  |  |  |  |  |  |  |  |
| inactive | Active | inactive |  |  |  |  |  |  | O=C1[C@@H]2CCCN2[C@@H](c2ccccc2)N1c1ccc([N+](=O)[O-])cc1 | > 10 |  |  |  |  |  |  |  |  |
| inactive | Active | inactive |  |  |  |  |  |  | COc1ccc([C@H]2N(c3ccc([N+](=O)[O-])cc3)C(=O)[C@@H]3CCCN32)cc1 | > 10 |  |  |  |  |  |  |  |  |

Source: ChEMBL document CHEMBL4393731, “Discovery of fused bicyclic derivatives of 1H-pyrrolo[1,2-c]imidazol-1-one as VDR signaling regulators” (Bioorg Med Chem, 2019)
